Results from the kinase profiling compilation of Christmann-Franck et al. (2016).

How the values were obtained:
Settings in all cases: compound 10.0 µM
BRSK1 (human) = BRSK1 (human) (UniProt Q8TDC3)
CDK1 CCNB1 (human) = CDK1 CCNB1 (human) (UniProt P06493+P14635)
CDK2 CCNA2 (human) = CDK2 CCNA2 (human) (UniProt P24941+P20248)
CDK7 CCNH MNAT1 (human) = CDK7 CCNH MNAT1 (human) (UniProt P50613+P51948+P51946)
CSF1R (human) = CSF1R (human) (UniProt P07333)
CSNK1A1 (human) = CSNK1A1 (human) (UniProt P48729)
Chain of CSNK1A1 (human) (P48729 whole entry, looked up): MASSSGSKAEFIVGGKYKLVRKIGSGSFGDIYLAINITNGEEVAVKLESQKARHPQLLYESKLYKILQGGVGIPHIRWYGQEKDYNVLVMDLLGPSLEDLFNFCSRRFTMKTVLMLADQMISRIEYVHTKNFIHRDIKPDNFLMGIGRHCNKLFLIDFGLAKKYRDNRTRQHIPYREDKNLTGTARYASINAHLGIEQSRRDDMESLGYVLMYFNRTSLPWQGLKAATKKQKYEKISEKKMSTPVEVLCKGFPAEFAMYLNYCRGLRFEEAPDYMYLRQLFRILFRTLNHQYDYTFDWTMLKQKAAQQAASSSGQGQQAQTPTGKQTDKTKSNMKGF

EPHA5 (human) = EPHA5 (human) (UniProt P54756)
EPHB2 (human) = EPHB2 (human) (UniProt P29323)
ERBB4 (human) = ERBB4 (human) (UniProt Q15303)
FLT3 (human) = FLT3 (human) (UniProt P36888)
Chain of FLT3 (human) (P36888 whole entry, looked up): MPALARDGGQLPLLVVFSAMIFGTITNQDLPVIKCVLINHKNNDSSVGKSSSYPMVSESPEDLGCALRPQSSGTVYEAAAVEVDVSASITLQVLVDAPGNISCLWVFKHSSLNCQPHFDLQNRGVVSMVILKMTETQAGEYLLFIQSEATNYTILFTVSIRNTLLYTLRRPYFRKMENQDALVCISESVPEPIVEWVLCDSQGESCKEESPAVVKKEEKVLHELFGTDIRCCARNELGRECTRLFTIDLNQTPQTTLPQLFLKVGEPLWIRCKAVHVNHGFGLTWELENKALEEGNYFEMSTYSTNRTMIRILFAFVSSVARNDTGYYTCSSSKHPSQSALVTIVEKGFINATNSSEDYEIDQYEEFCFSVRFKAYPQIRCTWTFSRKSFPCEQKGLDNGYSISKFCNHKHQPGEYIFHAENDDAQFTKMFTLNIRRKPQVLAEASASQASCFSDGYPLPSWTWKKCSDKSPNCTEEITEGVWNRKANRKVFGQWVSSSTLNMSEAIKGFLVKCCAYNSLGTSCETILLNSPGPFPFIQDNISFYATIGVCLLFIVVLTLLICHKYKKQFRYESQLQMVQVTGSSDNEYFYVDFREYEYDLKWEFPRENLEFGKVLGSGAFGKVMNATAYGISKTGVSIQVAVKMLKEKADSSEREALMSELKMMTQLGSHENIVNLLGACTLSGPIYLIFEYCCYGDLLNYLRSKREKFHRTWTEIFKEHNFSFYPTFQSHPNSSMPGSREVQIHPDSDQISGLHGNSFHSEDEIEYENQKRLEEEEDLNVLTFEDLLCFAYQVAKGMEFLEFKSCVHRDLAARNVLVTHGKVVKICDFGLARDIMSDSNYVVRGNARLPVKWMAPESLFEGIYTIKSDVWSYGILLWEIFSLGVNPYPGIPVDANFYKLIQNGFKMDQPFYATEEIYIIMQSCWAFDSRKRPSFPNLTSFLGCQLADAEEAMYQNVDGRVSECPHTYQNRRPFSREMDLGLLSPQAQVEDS

FYN (human) = FYN (human) (UniProt P06241)
GRK5 (human) = GRK5 (human) (UniProt P34947)
IKBKE (human) = IKBKE (human) (UniProt Q14164)
INSRR (human) = INSRR (human) (UniProt P14616)
JAK1 JH1 JH2 (human) = JAK1 JH1 JH2 (human) (UniProt P23458)
LRRK2 (human) = LRRK2 (human) (UniProt Q5S007)
MAP3K8 (human) = MAP3K8 (human) (UniProt P41279)
MAPK1 (human) = MAPK1 (human) (UniProt P28482)
MAPK13 (human) = MAPK13 (human) (UniProt O15264)
MARK2 (human) = MARK2 (human) (UniProt Q7KZI7)
Chain of MARK2 (human) (Q7KZI7 whole entry, looked up): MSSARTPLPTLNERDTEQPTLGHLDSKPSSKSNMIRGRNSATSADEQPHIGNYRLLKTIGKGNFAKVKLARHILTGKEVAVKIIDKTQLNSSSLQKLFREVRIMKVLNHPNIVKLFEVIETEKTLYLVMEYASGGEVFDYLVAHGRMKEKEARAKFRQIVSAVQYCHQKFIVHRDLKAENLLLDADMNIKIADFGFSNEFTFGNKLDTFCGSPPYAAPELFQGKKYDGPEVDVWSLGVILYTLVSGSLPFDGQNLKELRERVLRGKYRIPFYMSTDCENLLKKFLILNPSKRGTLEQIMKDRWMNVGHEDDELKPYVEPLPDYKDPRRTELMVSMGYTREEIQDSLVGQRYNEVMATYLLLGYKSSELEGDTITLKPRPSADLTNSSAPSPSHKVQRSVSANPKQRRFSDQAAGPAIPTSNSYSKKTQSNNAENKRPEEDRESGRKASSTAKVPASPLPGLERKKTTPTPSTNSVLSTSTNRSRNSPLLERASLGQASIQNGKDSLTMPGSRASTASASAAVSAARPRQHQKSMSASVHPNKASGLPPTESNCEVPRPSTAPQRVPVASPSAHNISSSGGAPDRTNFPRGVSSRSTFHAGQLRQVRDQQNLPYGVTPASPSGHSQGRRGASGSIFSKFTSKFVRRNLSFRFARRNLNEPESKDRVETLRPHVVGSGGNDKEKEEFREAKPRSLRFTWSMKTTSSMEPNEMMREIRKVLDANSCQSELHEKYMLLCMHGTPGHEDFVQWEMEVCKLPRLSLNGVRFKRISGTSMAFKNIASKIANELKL

MARK3 (human) = MARK3 (human) (UniProt P27448)
MERTK (human) = MERTK (human) (UniProt Q12866)
MET (human) = MET (human) (UniProt P08581)
NEK1 (human) = NEK1 (human) (UniProt Q96PY6)
NEK11 (human) = NEK11 (human) (UniProt Q8NG66)
NEK4 (human) = NEK4 (human) (UniProt P51957)
NEK6 (human) = NEK6 (human) (UniProt Q9HC98)
NEK9 (human) = NEK9 (human) (UniProt Q8TD19)
NUAK1 (human) = NUAK1 (human) (UniProt O60285)
PDGFRB (human) = PDGFRB (human) (UniProt P09619)
PIM3 (human) = PIM3 (human) (UniProt Q86V86)
PLK1 (human) = PLK1 (human) (UniProt P53350)
Chain of PLK1 (human) (P53350 whole entry, looked up): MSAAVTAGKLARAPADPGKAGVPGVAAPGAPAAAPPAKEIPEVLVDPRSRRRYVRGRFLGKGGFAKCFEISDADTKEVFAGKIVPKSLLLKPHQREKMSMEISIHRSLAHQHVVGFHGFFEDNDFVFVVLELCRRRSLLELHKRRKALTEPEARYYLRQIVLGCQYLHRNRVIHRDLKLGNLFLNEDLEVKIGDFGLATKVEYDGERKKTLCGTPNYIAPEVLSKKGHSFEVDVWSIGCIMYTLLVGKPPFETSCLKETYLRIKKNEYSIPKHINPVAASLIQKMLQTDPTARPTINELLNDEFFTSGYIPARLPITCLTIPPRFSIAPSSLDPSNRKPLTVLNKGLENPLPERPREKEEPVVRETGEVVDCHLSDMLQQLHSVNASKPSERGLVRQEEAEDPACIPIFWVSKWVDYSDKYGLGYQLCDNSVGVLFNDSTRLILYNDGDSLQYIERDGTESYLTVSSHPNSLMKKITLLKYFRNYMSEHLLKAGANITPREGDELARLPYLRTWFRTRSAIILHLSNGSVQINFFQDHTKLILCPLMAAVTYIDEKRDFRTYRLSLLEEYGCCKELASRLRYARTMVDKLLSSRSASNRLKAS

PRKCQ (human) = PRKCQ (human) (UniProt Q04759)
PTK2 (human) = PTK2 (human) (UniProt Q05397)
PTK6 (human) = PTK6 (human) (UniProt Q13882)
SGK2 (human) = SGK2 (human) (UniProt Q9HBY8)
SRMS (human) = SRMS (human) (UniProt Q9H3Y6)
Chain of SRMS (human) (Q9H3Y6 whole entry, looked up): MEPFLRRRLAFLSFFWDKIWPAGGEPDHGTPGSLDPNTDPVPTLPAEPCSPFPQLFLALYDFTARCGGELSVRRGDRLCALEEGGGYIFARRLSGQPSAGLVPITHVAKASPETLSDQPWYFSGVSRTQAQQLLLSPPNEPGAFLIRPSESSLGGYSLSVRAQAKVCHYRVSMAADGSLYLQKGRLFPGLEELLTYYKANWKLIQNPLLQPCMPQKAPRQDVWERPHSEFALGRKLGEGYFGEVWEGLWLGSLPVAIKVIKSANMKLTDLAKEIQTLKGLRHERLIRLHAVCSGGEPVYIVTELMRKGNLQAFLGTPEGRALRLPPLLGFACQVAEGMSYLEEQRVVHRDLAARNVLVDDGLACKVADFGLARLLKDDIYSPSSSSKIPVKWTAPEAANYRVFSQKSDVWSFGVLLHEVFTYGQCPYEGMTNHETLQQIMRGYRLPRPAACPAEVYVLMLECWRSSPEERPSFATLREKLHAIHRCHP

SRPK1 (human) = SRPK1 (human) (UniProt Q96SB4)
TGFBR1 (human) = TGFBR1 (human) (UniProt P36897)
TGFBR2 (human) = TGFBR2 (human) (UniProt P37173)
TLK2 (human) = TLK2 (human) (UniProt Q86UE8)
TNK2 (human) = TNK2 (human) (UniProt Q07912)
TSSK1B (human) = TSSK1B (human) (UniProt Q9BXA7)
WNK3 (human) = WNK3 (human) (UniProt Q9BYP7)
Chain of WNK3 (human) (Q9BYP7 whole entry, looked up): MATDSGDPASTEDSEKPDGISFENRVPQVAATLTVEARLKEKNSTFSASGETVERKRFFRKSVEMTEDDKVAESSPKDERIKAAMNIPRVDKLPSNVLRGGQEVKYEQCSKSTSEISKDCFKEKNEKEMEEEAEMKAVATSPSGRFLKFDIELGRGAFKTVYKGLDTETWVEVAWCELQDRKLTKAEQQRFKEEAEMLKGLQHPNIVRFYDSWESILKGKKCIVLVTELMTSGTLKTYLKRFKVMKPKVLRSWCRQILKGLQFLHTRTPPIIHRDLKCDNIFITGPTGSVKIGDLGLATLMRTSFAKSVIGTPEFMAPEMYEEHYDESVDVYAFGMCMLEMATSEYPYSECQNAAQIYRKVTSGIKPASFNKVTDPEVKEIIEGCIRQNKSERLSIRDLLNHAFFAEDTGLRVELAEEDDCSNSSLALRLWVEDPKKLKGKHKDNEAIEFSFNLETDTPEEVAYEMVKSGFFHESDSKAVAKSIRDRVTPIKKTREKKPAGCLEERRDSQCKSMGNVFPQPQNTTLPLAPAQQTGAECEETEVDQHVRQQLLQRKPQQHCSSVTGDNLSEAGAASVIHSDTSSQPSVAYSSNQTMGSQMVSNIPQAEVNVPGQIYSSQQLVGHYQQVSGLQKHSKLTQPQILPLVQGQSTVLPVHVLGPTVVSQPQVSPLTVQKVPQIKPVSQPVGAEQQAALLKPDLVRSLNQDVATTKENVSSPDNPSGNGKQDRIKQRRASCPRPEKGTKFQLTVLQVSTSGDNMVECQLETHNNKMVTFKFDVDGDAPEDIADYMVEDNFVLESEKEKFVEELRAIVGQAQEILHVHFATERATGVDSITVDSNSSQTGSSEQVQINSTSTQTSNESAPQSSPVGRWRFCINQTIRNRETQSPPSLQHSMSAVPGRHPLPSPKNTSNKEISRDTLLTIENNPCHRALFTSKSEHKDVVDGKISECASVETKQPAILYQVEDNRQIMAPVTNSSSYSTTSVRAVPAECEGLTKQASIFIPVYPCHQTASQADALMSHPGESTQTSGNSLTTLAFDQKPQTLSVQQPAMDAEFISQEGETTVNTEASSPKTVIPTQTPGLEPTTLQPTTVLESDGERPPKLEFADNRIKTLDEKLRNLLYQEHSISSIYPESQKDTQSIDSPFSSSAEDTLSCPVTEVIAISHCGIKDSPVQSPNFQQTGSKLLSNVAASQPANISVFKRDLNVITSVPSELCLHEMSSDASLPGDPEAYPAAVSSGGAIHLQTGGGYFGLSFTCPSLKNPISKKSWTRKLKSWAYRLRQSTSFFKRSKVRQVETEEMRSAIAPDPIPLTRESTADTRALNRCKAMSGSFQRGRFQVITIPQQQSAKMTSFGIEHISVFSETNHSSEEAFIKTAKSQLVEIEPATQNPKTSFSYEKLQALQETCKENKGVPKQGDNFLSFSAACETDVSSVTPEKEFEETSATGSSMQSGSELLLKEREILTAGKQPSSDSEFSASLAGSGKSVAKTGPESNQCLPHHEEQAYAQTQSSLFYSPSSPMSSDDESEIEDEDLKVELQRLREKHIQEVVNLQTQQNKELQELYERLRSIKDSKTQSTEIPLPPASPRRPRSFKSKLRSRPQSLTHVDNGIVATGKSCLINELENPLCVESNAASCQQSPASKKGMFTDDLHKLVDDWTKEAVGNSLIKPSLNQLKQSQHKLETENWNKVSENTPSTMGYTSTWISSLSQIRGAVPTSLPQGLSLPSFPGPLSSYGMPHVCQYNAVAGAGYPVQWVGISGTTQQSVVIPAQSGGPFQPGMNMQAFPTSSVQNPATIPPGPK

Molecule `CC[C@H](C)n1cc(C)c2c(C(=O)NCc3c(C)cc(C)[nH]c3=O)cc(-c3ccc(N4CCNCC4)nc3)cc21` has a residual activity (BRSK1 (human)) of 99.5%, a residual activity (CDK1 CCNB1 (human)) of 99% and a residual activity (CDK2 CCNA2 (human)) of 97%. The residual activity (CDK7 CCNH MNAT1 (human)) was 102%, the residual activity (CSF1R (human)) was 95% and the residual activity (CSNK1A1 (human)) was 97%. For the same molecule, the residual activity (EPHA5 (human)) was 77%, the residual activity (EPHB2 (human)) was 95.5% and the residual activity (ERBB4 (human)) was 93.5%. For the same molecule, the residual activity (FLT3 (human)) was 87.5%, the residual activity (FYN (human)) was 100% and the residual activity (GRK5 (human)) was 101%. It also gave a residual activity (IKBKE (human)) of 94.5%, a residual activity (INSRR (human)) of 88% and a residual activity (JAK1 JH1 JH2 (human)) of 97.5%. For the same molecule, the residual activity (LRRK2 (human)) was 99%, the residual activity (MAP3K8 (human)) was 95.5% and the residual activity (MAPK1 (human)) was 95%. The residual activity (MAPK13 (human)) was 95%, the residual activity (MARK2 (human)) was 92.5% and the residual activity (MARK3 (human)) was 110%. For the same molecule, the residual activity (MERTK (human)) was 98.5%, the residual activity (MET (human)) was 128% and the residual activity (NEK1 (human)) was 96.5%. For the same molecule, the residual activity (NEK11 (human)) was 107%, the residual activity (NEK4 (human)) was 95.5% and the residual activity (NEK6 (human)) was 95.5%. It also gave a residual activity (NEK9 (human)) of 102%, a residual activity (NUAK1 (human)) of 102% and a residual activity (PDGFRB (human)) of 102%. It also gave a residual activity (PIM3 (human)) of 93.5%, a residual activity (PLK1 (human)) of 98.5% and a residual activity (PRKCQ (human)) of 99.5%. For the same molecule, the residual activity (PTK2 (human)) was 91.5%, the residual activity (PTK6 (human)) was 93% and the residual activity (SGK2 (human)) was 105%. It also gave a residual activity (SRMS (human)) of 93.5%, a residual activity (SRPK1 (human)) of 108% and a residual activity (TGFBR1 (human)) of 100%. It also gave a residual activity (TGFBR2 (human)) of 100%, a residual activity (TLK2 (human)) of 101% and a residual activity (TNK2 (human)) of 93.5%. For the same molecule, the residual activity (TSSK1B (human)) was 102% and the residual activity (WNK3 (human)) was 95%.
